# Laboratory results taken from patent US20110269763A1, “CRTH2 receptor ligands for medicinal uses” (7TM Pharma A/S, priority 2004, published 2011).
# pIC50: −log10 of the molar value.
# Columns and labels:
# [1] = molecular target: T1, human CRTH2 (Homo sapiens, UniProt Q9Y5Y4, V204A); test: Functional antagonist BRET assay on HEK293 cells stably expressing human CRTH2-Rluc and GFP2-β-arr2; type: cell-based; set-up: expressed in transfected cells; conditions: read-out: Antag. IC50
# T1 sequence (Q9Y5Y4 1-395 V204A): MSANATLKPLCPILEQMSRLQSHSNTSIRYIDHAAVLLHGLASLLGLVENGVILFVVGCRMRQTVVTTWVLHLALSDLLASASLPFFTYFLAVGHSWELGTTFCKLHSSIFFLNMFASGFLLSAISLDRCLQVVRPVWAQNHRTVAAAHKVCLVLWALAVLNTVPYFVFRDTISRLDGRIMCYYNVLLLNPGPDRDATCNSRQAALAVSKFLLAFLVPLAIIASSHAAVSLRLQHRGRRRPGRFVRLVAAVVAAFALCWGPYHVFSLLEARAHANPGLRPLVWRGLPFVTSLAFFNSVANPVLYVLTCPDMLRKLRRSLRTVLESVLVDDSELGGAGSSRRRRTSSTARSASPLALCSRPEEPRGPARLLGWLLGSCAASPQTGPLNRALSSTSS
# Method in brief: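 Cells (2×10^6/mL in D-PBS with glucose) were preincubated 15 min with antagonist at 1% DMSO, then agonist and DeepBlueC were co-injected. Emission at 400 and 515 nm was read 5 s later, and the mBRET ratio (515/400 nm) was used to derive IC50 from concentration–response curves.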
# [2] = molecular target: T1, human CRTH2; test: Receptor binding assay: [3H]PGD2 competition binding on whole COS-7 cells transiently transfected with CRTH2 (also stable HEK293 cells); set-up: expressed in transfected cells; host or cells: COS-7 (transient, calcium phosphate)
# Method in brief: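 Whole COS-7 cells transiently transfected with human CRTH2 (calcium phosphate), or stable HEK293 cells, competed against 0.1 nM [3H]PGD2 in HBSS/10 mM HEPES with 1% DMSO, 3 h at 4 °C. Nonspecific binding with 10 μM PGD2; scintillation counting, duplicates. IC50 from curve fitting.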
# [3] = BRET, antagonist incubated 15 minutes prior to agonist
# [4] = competition with 0.1 nM [3H]PGD2, whole cells, 3 h at 4° C.
# [5] = functional antagonist assay, Table 3
# [6] = receptor binding assay, Table 3
SMILES,"pIC50 [1, 3]","pIC50 [2, 4]","pIC50 [1, 5]","pIC50 [2, 6]"
"O=C(O)COc1ccc(Br)cc1-c1nc(-c2ccc(F)cc2)no1 [D100, {4-Bromo-2-[3-(4-fluoro-phenyl)-[1,2,4]oxadiazol-5-yl]phenoxy}acetic acid]",,,> 6.30,> 6.30
"COc1ccc(Cc2noc(-c3cc(Br)ccc3OCC(=O)O)n2)cc1 [D118, {4-Bromo-2-[3-(4-methoxy-benzyl)-[1,2,4]oxadiazol-5-yl]-phenoxy}-acetic acid]",,,> 6.30,> 6.30
"O=C(O)COc1ccc(Br)cc1-c1nc(C2(c3ccccc3)CC2)no1 [D132, {4-Bromo-2-[3-(1-phenylcyclopropyl)-[1,2,4]oxadiazol-5-yl]phenoxy}acetic acid]",> 6.30,> 6.30,,
"O=C(O)COc1ccc(Br)cc1-c1nc(-c2cc(C(F)(F)F)cc(C(F)(F)F)c2)no1 [D109, {2-[3-(3,5-Bis-trifluoromethyl-phenyl)-[1,2,4]oxadiazol-5-yl]-4-bromo-phenoxy}-acetic acid]",,,< 5.30,> 6.30
"CCc1cccc(CC)c1-n1cc(C(=O)c2cc(Br)ccc2OC(C)C(=O)O)cn1 (stereo not shown) [D78, 2-{4-Bromo-2-[1-(2,6-diethylphenyl)-1H-pyrazole-4-carbonyl]phenoxy}propionic acid]",> 6.30,> 6.30,,
COc1ccc(-c2cnnc(NN=Cc3ccccc3OCC(=O)O)n2)cc1 [D153],< 5.30,5.30 to 6.30,,

# The next lines start with the values.
"pIC50 [1, 3]","pIC50 [2, 4]","pIC50 [1, 5]","pIC50 [2, 6]",SMILES
> 6.30,> 6.30,,,"CCc1ccc(OCC(=O)O)c(C(=O)c2cnn(-c3ccccc3Br)c2)c1 [D30, 4-Ethyl-2-[1-(2-bromophenyl)-1H-pyrazole-4-carbonyl]phenoxyacetic acid]"
> 6.30,> 6.30,,,"O=C(O)COc1ccc(Br)cc1CN1CC(=O)N(Cc2ccc(Cl)cc2)C1=O [D139, 4-Bromo-2-[3-(4-chlorobenzyl)-2,4-dioxoimidazolidin-1-ylmethyl]phenoxyacetic acid]"
> 6.30,> 6.30,,,O=C(O)COc1ccc(Br)cc1C(=O)c1cnn(-c2ccc(OC(F)(F)F)cc2)c1 [D32]
> 6.30,> 6.30,,,"O=C(O)COc1ccc(Br)cc1C(=O)c1cnn(-c2ccc(Cl)cc2Cl)c1 [D26, 4-Bromo-2-[1-(2,4-dichlorophenyl)-1H-pyrazole-4-carbonyl]phenoxyacetic acid]"
> 6.30,> 6.30,,,"CC(Oc1ccc(Br)cc1C(=O)c1cnn(-c2ccccc2)c1)C(=O)O (racemic) [D37, 2-[4-Bromo-2-(1-phenyl-1H-pyrazole-4-carbonyl)phenoxy]propionic acid]"
